Values joined by “and” are separate entries in the source; they are usually repeats but may differ in a detail not shown here. Equal entries are not always repeated. “Also recorded” adds a separate entry of the source. Where two headings read alike, the source gives them in different places.
Experiments:
[1] = Shelf life / stability of the compound over time; assay type: physicochemical; details: storage (CA: even if kept in the dark and cold)
[2] = system: hiPSC-derived microglia (hiMG); assay: hiMG transplanted into humanized mouse brain, inflammatory markers; assay type: in vivo, human
Protocol: The next day, immunostaining was performed on brain sections after 3 washes in PBS and incubation in the appropriate secondary antibody solution on a shaker for 2 h at room temperature. Secondary antibodies included Alexa 488 (A11008, 1:500, goat anti-rabbit, Life Technologies, Carlsbad, CA, USA) and Alexa 555 (A21424, 1:500, goat anti-mouse, Life Technologies). The sections were again washed with PBS 3 times, mounted on Superfrost plus slides (12-550-15, Fisher Scientific, Waltham, MA, USA) and dried at room temperature. […] For each brain, 3–6 images were acquired for each individual marker using a confocal fluorescence microscope (Nikon Eclipse Ti2) (Figure 1, Figure 2 and Figure 3, Supplementary Figure S1). Post image processing, quantification was performed using Fiji ImageJ (1.54f). For the Iba1-stained slides, a mask was made of cells co-labeled for HuNu and Iba1, and then caspase 1 staining was measured. […] For quantification, NeuN, Synapsin I, and GFAP staining were compared between groups by mean fluorescence intensity (MFI), Iba1 and caspase-1 staining was compared by integrated density (ID), Aβ and pTau staining were compared by % area of plaques/aggregates, as previously described. […]

[3] = in vivo; for AUC%Extrap: mouse
Protocol: (§1) We tested both CA and diAcCA compounds by oral gavage/PO at 10 mg/kg. Analysis was performed by LC-MS in the Scripps Florida Drug Development Core (Jupiter, FL, USA). The compounds were formulated in olive oil. CA went into the oil with minimal stirring, but diAcCA required longer stirring. Blood was collected in hematocrit tubes and centrifuged. […] Drug is therefore likely absorbed via enterocyte passage and through chylomicron absorbance, complicating the early time points of the PK curves.
(§2) Therefore, we decided to pre-weigh the CA into a vial and, in the vivarium, rapidly dissolve the compound in DMSO and then add Tween80/saline. The compound was dosed within five minutes of being dissolved, and the final concentrations were 5% DMSO and 95% of a 5% Tween80 solution in saline. […] Oral clearance calculations assume 100% bioavailability.
(§3) We also determined the stability and bioavailability of diAcCA compared to CA. For this purpose, individual mice were administered CA or diAcCA IV or via oral gavage/PO. For CA, the doses were 3 mg/kg for the IV route and 10 mg/kg for oral gavage/PO, and for diAcCA 10 mg/kg by oral gavage/PO.

in vivo = details: for AUC(0-inf): AUCINF_obs; for AUC(0-t): AUClast
Protocol: as §1, §2, §3

[4] = cited from earlier work
[5] = cited from earlier work; remark: listed apart in the source
[6] = male, C57Bl/6, mouse, po, 10 mg/kg
[7] = mouse, po, 10 mg/kg, Plasma concentration of carnosic acid

CC(C)c1cc2c(c(O)c1O)[C@@]1(C(=O)O)CCCC(C)(C)[C@@H]1CC2 [CA, carnosic acid]
shelf life / stability over time [1]: shelf life of only a couple of months | inflammatory response (Iba1 and caspase-1 expression) of transplanted hiMG ([2]; hiMG activated by α-synuclein/Aβ aggregates with or without cognate antibodies, pretreated with CA (2 µM), 2 weeks after transplantation): significantly prevented this inflammatory reaction; also recorded: prevented this effect | cleaved/activated caspase-1 integrated density (ID) ([2]; response to α-synuclein/Aβ aggregates in the presence of CA (2 µM), p = 0.0307): significant decrease | Calculated Concentration of carnosic acid in plasma ([3]; C57Bl/6, mouse, po, 6 h): 618 ng/mL | CL*F [3, 6]: 2.7 | AUC%Extrap ([3]; iv, 3 mg/kg): 1.77% | AUC%Extrap ([3]; po, 10 mg/kg): 4.13% | AUC(0-inf) (in vivo; male, C57Bl/6, mouse, iv, 3 mg/kg): 15000 ng·h/mL | clearance (in vivo; male, C57Bl/6, mouse, iv, 3 mg/kg, Cl_obs): 3.3 mL/min/kg | MRT inf (in vivo; male, C57Bl/6, mouse, iv, 3 mg/kg, MRTINF_obs): 5.46 h | half-life (in vivo; male, C57Bl/6, mouse, iv, 3 mg/kg, T1/2): 13 h | AUC(0-inf) (in vivo; [6]): 10700 ng·h/mL | bioavailability (in vivo; male, C57Bl/6, mouse, po, 10 mg/kg, F%): 16% | half-life (in vivo; male, C57Bl/6, mouse, po, 10 mg/kg, T1/2): 19.9 h | AUC(0-inf) (in vivo; mouse, iv, 3 mg/kg): 20100 ng·h/mL | AUC(0-t) (in vivo; mouse, iv, 3 mg/kg): 59.5 µM·h | half-life (in vivo; mouse, iv, 3 mg/kg, t1/2): 11.9 h | Tmax (in vivo; mouse, iv, 3 mg/kg): 0.14 h | Cmax (in vivo; mouse, iv, 5 mg/kg, mean Cmax of CA in plasma): 98.5 µM | half-life (in vivo; mouse, iv, average half-life): 11.9 h | half-life (in vivo; mouse, iv, half-life): ~12 h | AUC(0-inf) (in vivo; mouse, po, 10 mg/kg): 9710 ng·h/mL | AUC(0-t) (in vivo; mouse, po, 10 mg/kg): 28 µM·h | Cmax (in vivo; mouse, po, 10 mg/kg, Cmax of CA in plasma): 4.45 µM | concentration at 480 min (in vivo; [7]): 1 µM and 332 ng/mL | concentration at 4320 min (in vivo; [7]): 64.4 nM and 21.4 ng/mL | half-life (in vivo; mouse, po, 10 mg/kg, average half-life): 16.3 h | Cmax (in vivo; mouse, po, 10 mg/kg, mean Cmax of CA): 4.45 µM | half-life (in vivo; mouse, po, 10 mg/kg, t1/2): 16.3 h | Tmax (in vivo; mouse, po, 10 mg/kg): 1.5 h | LD50 [4]: 7100 mg/kg | brain levels as share of the plasma level at peak values ([5]; PO and IV routes): approximately 10% | CA concentration in the brain, which is neuroprotective [5]: 1 to 2 µM | CA plasma concentration that produces the neuroprotective brain level [5]: 10 to 20 µM

Reference: PMC11939361, “diAcCA, a Pro-Drug for Carnosic Acid That Activates the Nrf2 Transcriptional Pathway, Shows Efficacy in the 5xFAD Transgenic Mouse Model of Alzheimer’s Disease” (Antioxidants, 2025)
